Measured values from US10842150B2, “Method of controlling Fusarium on potato using lower alkyl naphthalene” (1,4Group, Inc., priority 2018, dated 2020).
“Also recorded” adds a separate entry of the source.

Experiments:
F. oxysporum = assay: Single spore isolate plates of F. oxysporum exposed to 1,4-DMN vapour; colony count and mycelium diameter; assay type: cell-based, Fusarium oxysporum
Source text: F. oxysporum was isolated from the surface of potato tuber using the Fusarium selective media Nash-Snider, to which cultures were transferred and maintained on nutritionally complex potato dextrose agar plates. DNA sequencing using selective primers NL1, NL2, ITS1F, and ITS2R confirmed the fungus to be F. oxysporum.
A single spore isolation technique was utilized to record the number and growth response of the spores treated with 1,4-DMN in comparison with the spores treated with water (i.e., the Control). Single spore isolate plates were contained in vacuum sealed chambers and incubated at a constant temperature of about 22° C., while exposed to 7.5 μl of 1,4-DMN via aerosol dispersion for four days. After a day of rest, the spores on each plate were measured and counted.
Potato skin scrapings were cultured on the Fusarium selective media Nash Snider Agar, and later transferred and maintained on nutritionally complex Potato Dextrose Agar (PDA) (Step 1.1 in FIG. 1). DNA isolations were performed on single spore isolates using a Power Soil DNA Isolation Kit (Step 1.2 in FIG. 1). Several primers as shown in FIG. 2 were studied for amplification of Fungal DNA. Fusarium selective primers NL1, NL2, ITS1F, and ITS2 allowed PCR amplification of fungal strains genomically similar to Fusarium. […] The DNA were sequenced, and the sequence data were analyzed using NCBI BLASTn sequence alignment (Step 1.4 in FIG. 1). […] The strain identified as F. oxysporum was then subjected to treatments of DMN (7.5 μl) in specialized airtight bins, and incubated at a constant temperature of about 25° C. for four days (Step 1.5 in FIG. 1). […] Then, colony quantity and mycelium diameter were determined (Step 1.6 in FIG. 1).

Fusarium spp. = settings: two storage trials over two years; cited from earlier work
Fusarium wilt = settings: treatment of potato tuber; cited from earlier work

| Compound | efficacy in suppressing tuber infection caused by Fusarium spp. (in words) (Fusarium spp.) | effect in controlling Fusarium wilt development (in words) (Fusarium wilt) | further results |
| --- | --- | --- | --- |
| Cc1ccc(C)c2ccccc12 [1,4-DMN, 1,4-dimethyl naphthalene] |  |  | Average Colony mycelium diameter (F. oxysporum; 7.5 μl 1,4-DMN via aerosol dispersion in sealed chamber, four days, about 22° C. / 25° C., Control 9.89 cm): 2.94 cm; Average Colonies per Plate (F. oxysporum; 7.5 μl 1,4-DMN, four days, Control 4.05): 4.125; Total Colonies (F. oxysporum; 7.5 μl 1,4-DMN, four days, Control 162): 165; mycelium growth of F. oxysporum versus untreated Control (in words) (F. oxysporum; exposure to 1,4-DMN for four days): slower mycelium diameter growth; also recorded: inhibition of mycelium growth |
| OP(O)O [Phosphorous acid, phosphorous acid] | moderately effective |  |  |
| CO/C=C(/C(=O)OC)c1ccccc1Oc1cc(Oc2ccccc2C#N)ncn1 [azoxystrobin] | moderately effective |  |  |
| N#Cc1c[nH]cc1-c1cccc2c1OC(F)(F)O2 [fludioxonil] |  | limited effect |  |
| OO [hydrogen peroxide] | moderately effective |  |  |
| c1ccc2ncccc2c1 [quinoline] |  | limited effect |  |
